Experiments:
[1] = molecular target: T1, human cloned 5-HT2C receptor (Homo sapiens, UniProt P28335); experiment: In vitro binding affinity for 5-HT2C receptor (radioligand binding); details: human cloned 5-HT2C receptor expressed in CHO cells, [3H]mesulergine radioligand; read-out: 5-HT2C (pIC50) (converted)
T1 construct: expressed in transfected cells; host or cells: CHO cells
T1 sequence (P28335 33-458): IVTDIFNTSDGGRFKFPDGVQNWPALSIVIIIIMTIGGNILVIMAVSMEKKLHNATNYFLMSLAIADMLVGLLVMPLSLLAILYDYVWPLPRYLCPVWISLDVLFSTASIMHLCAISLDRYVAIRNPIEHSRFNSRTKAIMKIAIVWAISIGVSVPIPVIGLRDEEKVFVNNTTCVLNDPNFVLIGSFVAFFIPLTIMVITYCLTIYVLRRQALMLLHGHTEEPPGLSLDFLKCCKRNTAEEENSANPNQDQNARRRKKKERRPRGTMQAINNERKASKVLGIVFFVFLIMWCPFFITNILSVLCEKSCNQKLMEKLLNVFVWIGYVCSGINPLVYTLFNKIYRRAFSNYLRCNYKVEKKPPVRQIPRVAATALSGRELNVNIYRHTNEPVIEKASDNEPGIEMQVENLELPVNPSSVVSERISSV
Method: The interaction of the compounds of Formula (I) with 5-HT2A and 5-HT2C receptors was assessed in in vitro radioligand binding experiments. In general, a low concentration of a radioligand with a high binding affinity for the receptor is incubated with a sample of a tissue preparation enriched in a particular receptor (1 to 5 mg tissue) in a buffered medium (0.2 to 5 ml). During the incubation, the radioligands bind to the receptor. When equilibrium of binding is reached, the receptor bound radioactivity is separated from the non-bound radioactivity, and the receptor bound activity is counted. The interaction of the test compounds with the receptors is assessed in competition binding experiments. Various concentrations of the test compound are added to the incubation mixture containing the tissue preparation and the radioligand. Binding of the radioligand will be inhibited by the test compound in proportion to its binding affinity and its concentration. The affinities of the compounds for the 5-HT2 receptors were measured by means of radioligand binding studies conducted with: (a) human cloned 5-HT2A receptor, expressed in L929 cells using [^125I]R91150 as radioligand and (b) human cloned 5-HT2C receptor, expressed in CHO cells using [^3H]mesulergine as radioligand.

[2] = molecular target: T2, human dopamine D2L receptor (Homo sapiens, UniProt P14416); experiment: In vitro assay for D2 receptor binding; details: for IC50 / D2 (pIC50): membranes of human D2L-transfected CHO cells, [3H]Spiperone radioligand; for IC50: read-out: D2 (pIC50) (converted); for D2/NET: ratio of D2 pIC50 to NET-inhibition pIC50
T2 construct: expressed in transfected cells; host or cells: CHO cells (frozen membranes)
T2 sequence (P14416 whole entry): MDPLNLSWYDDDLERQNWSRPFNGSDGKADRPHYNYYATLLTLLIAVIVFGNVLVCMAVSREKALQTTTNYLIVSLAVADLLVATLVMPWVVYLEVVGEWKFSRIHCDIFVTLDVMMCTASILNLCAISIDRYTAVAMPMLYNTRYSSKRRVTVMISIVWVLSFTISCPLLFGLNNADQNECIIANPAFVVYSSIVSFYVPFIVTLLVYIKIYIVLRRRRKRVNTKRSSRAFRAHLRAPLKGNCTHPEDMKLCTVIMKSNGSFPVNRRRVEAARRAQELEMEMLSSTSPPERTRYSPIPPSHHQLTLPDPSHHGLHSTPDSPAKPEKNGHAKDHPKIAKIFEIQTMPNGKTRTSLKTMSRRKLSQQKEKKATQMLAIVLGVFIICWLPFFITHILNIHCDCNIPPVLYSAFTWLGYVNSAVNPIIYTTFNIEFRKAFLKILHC
Method: Frozen membranes of human dopamine D2L receptor-transfected CHO cells were thawed, briefly homogenised using an Ultra-Turrax T25 homogeniser and diluted in Tris-HCl assay buffer containing NaCl, CaCl2, MgCl2, KCl (50, 120, 2, 1, and 5 mM respectively, adjusted to pH 7.7 with HCl) to an appropriate protein concentration optimised for specific and non-specific binding. Radioligand [^3H]Spiperone (NEN, specific activity ˜70 Ci/mmol) was diluted in assay buffer at a concentration of 2 nmol/L. Prepared radioligand (50 μl), along with 50 μl of either the 10% DMSO control, Butaclamol (10^−6 mol/l final concentration), or compound of interest, was then incubated (30 min, 37° C.) with 400 μl of the prepared membrane solution. Membrane-bound activity was filtered through a Packard Filtermate harvester onto GF/B Unifilterplates and washed with ice-cold Tris-HCl buffer (50 mM; pH 7.7; 6×0.5 ml). Filters were allowed to dry before adding scintillation fluid and counting in a Topcount scintillation counter. Percentage specific bound and competition binding curves were calculated using S-Plus software (Insightful).

[3] = molecular target: T3, norepinephrine transporter (NET) (Rattus norvegicus, UniProt Q63380); experiment: In vitro assay for NET inhibition (radioligand binding, rat brain cortex); details: rat brain cortex membranes, [3H]Nixosetine radioligand; for IC50: read-out: NET-inhibition (pIC50) (converted)
T3 construct: Cortex from rat brain was collected and homogenised; from tissue; host or cells: rat brain cortex membranes
T3 sequence (Q63380 1-617): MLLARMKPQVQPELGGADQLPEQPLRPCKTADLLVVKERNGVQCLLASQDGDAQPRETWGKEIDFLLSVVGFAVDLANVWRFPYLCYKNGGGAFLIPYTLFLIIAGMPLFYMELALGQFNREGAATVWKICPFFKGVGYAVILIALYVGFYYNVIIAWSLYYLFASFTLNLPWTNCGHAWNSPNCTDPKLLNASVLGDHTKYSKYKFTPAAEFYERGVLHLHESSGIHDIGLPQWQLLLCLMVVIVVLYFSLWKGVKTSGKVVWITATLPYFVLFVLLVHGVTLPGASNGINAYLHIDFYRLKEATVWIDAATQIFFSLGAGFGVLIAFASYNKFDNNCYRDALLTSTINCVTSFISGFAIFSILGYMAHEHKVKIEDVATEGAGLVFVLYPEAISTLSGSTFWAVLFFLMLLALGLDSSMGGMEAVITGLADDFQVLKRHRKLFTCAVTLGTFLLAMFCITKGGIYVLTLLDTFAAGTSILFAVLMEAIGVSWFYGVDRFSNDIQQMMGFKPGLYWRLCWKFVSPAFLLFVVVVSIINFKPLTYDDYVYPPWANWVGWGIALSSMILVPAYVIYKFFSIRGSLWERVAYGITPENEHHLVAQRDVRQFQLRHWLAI
Method: Cortex from rat brain was collected and homogenised using an Ultra-Turrax T25 and a Dual homogeniser in ice-cold homogenising buffer containing Tris, NaCl and KCl (50 mM, 120 mM and 5 mM, respectively, pH 7.4) prior to dilution to an appropriate protein concentration optimised for specific and non-specific binding. […] Membrane-bound activity was detected by filtration through a Packard Filtermate harvester onto GF/B Unifilterplates, washed with ice-cold Tris-HCl buffer, containing NaCl and KCl (50 mM, 120 mM and 4 mM; pH 7.4; 6×0.5 ml). Filters were allowed to dry for 24 h before adding scintillation fluid. Scintillation fluid was allowed to saturate filters for 24 h before counting in a Topcount scintillation counter. Percentage specific bound and competition binding curves were calculated using S-Plus software (Insightful).

Row | IC50 [1] | IC50 [2] | D2/NET [2] | IC50 [3] | NET-inhibition (pIC50) [3] | D2 (pIC50) [2] | Compound
1 | 1.58 µM | > 10 µM | <0.85 | 1.26 µM | – | – | CNCC1CC2c3cc(F)ccc3C(C)(O)c3ccccc3C2O1 (single isomer, unassigned) [Compound 115]
2 | 0.1 µM | 2 µM | 0.91 | 0.631 µM | – | – | CCNCC1CC2c3ccccc3C(C)(O)c3ccc(F)cc3C2O1 (single isomer, unassigned) [Compound 118]
3 | 0.02 µM | – | 0.67 | 0.0316 µM | – | – | CCNCC1CC2c3ccccc3C(C)(O)c3ccc(F)cc3C2O1 (single isomer, unassigned) [Compound 119]
4 | 6.31 µM | – | <0.77 | 0.316 µM | – | <5 | CNCC1CC2c3ccccc3C(C)(O)c3ccc(F)cc3C2O1 (single isomer, unassigned) [Compound 124]
5 | 6.31 µM | > 10 µM | <0.88 | 2 µM | – | – | CNCC1CC2c3ccccc3C(C)(O)c3ccc(F)cc3C2O1 (single isomer, unassigned) [Compound 125]
6 | 0.501 µM | – | <0.69 | 0.0631 µM | – | <5 | CNCC1CC2c3ccccc3C(C)(O)c3ccc(F)cc3C2O1 (single isomer, unassigned) [Compound 126]

Further lines, the compound ahead of its results:

Row | Compound | IC50 [1] | IC50 [2] | D2/NET [2] | IC50 [3] | NET-inhibition (pIC50) [3] | D2 (pIC50) [2]
7 | CNC[C@@H]1C[C@H]2c3ccccc3C(C)c3ccc(F)cc3[C@@H]2O1 (mixture of isomers) [Compound 99] | 0.2 µM | > 10 µM | <0.69 | 0.0631 µM | – | –
8 | CNC[C@H]1C[C@H]2c3cc(F)ccc3C(C)c3ccccc3[C@@H]2O1 (mixture of isomers) [Compound 102] | 0.0501 µM | 7.94 µM | 0.68 | 0.0316 µM | – | –
9 | C=C1c2ccc(F)cc2C2CC(CNC)OC2c2ccccc21 (single isomer, unassigned) [Compound 93] | 0.00398 µM | – | 0.73 | 0.00631 µM | – | –
10 | C=C1c2ccc(F)cc2C2CC(CNC)OC2c2ccccc21 (single isomer, unassigned) [Compound 94] | 0.02 µM | 5.01 µM | 0.65 | – | 8.2 | –
11 | CNCC1CC2c3ccccc3C(C)c3ccc(F)cc3C2O1 (single isomer, unassigned) [Compound 100] | 0.158 µM | > 10 µM | <0.62 | 0.00794 µM | – | –
12 | CNCC1CC2c3cc(F)ccc3C(C)(O)c3ccccc3C2O1 (single isomer, unassigned) [Compound 114] | 1 µM | – | <0.83 | 0.631 µM | – | <5
13 | COc1ccc2c(c1)[C@H]1O[C@@H](CN(C)C)C[C@@H]1c1ccccc1C2=O [Compound 16] | 0.0501 µM | – | 0.95 | 0.501 µM | – | –
14 | C=C1c2ccc(F)cc2C2CC(CN(C)C)OC2c2cc(F)ccc21 (stereo not shown) [Compound 29] | 0.0126 µM | > 1 µM | <0.72 | 0.00501 µM | – | –
15 | COC1c2ccccc2[C@H]2C[C@H](CN(C)C)O[C@@H]2c2cc(F)ccc21 (stereo partly shown) [Compound 60] | 0.0398 µM | 3.98 µM | 0.79 | 0.126 µM | – | –
16 | CC1c2ccc(F)cc2C2CC(CN(C)C)OC2c2cc(F)ccc21 (stereo not shown) [Compound 77] | 0.0501 µM | > 1 µM | <0.80 | 0.0316 µM | – | –
17 | C[C@@H]1c2ccccc2[C@H]2C[C@H](CN(C)C)O[C@@H]2c2cc(N(C)C)ccc21 [Compound 78] | 0.1 µM | 2 µM | 0.88 | 0.398 µM | – | –
18 | C=C1c2ccccc2[C@@H]2C[C@@H](CNC)O[C@H]2c2cc(F)ccc21 [Compound 95] | 0.0501 µM | 6.31 µM | 0.67 | 0.0158 µM | – | –
19 | CNC[C@H]1C[C@@H]2c3cc(F)ccc3[C@@H](C)c3ccccc3[C@H]2O1 [Compound 101] | 0.02 µM | 3.98 µM | 0.69 | 0.0158 µM | – | –

— patent US20070197525A1, “Novel tetracyclic tetrahydrofuran derivatives” (priority 2004, published 2007)
